Values of other authors in US20250241957A1, “INTRA-ERYTHROCYTE DEXAMETHASONE FOR TREATMENT OF ATAXIA-[…]” (priority 2024, published 2025).

System: participants with A-T
Details: betamethasone used for two years

Adrenal suppression: documented in all participants
Compound: C[C@H]1C[C@H]2[C@@H]3CCC4=CC(=O)C=C[C@]4(C)[C@@]3(F)[C@@H](O)C[C@]2(C)[C@@]1(O)C(=O)CO [betamethasone]
